The text below walks through data of patent publication US9987266B2, “Alkyl-amide-substituted pyridyl compounds useful as modulators of IL-12, IL-23 and/or IFNα responses” (BRISTOL-MYERS SQUIBB COMPANY, priority 2013, dated 2018).

The target of assay [1] is T1, recombinantly expressed His-tagged protein corresponding to amino acids 575-869 of human Tyk2 (Homo sapiens, UniProt P29597).
T1 construct: made in house
Briefly: Probe displacement assay (scintillation proximity, radiolabeled probe). It counts as binding. Particulars: 2.5 nM Tyk2 (575-869), 40 nM [3H] probe, 30 minutes at room temperature. The method, then: The preparation of radiolabeled probe, (R)—N-(1-(3-(8-methyl-5-(methylamino)-8H-imidazo[4,5-d]thiazolo[5,4-b]pyridin-2-yl)phenyl)ethyl)-2-([^3H]methylsulfonyl)benzamide, was performed as described below: […]

Assay [2] has as its system Kit225 T cells with STAT-dependent luciferase reporter stimulated with human recombinant IFNα. Briefly: Kit225 T cell assay, IFNα stimulated STAT-dependent luciferase reporter. In kind it is cell-based. On the procedure: (§1) Kit225 T cells with a stably-integrated STAT-dependent luciferase reporter were plated in RPMI (Gibco) containing 10% heat-inactivated FBS (Gibco) and 100 U/mL PenStrep (Gibco). The cells were then stimulated with either 20 ng/mL human recombinant IL-23 or 200 U/mL human recombinant IFNα (PBL InterferonSource) for 5-6 hours. Luciferase expression was measured using the STEADY-GLO® Luciferase Assay System (Promega) according to the manufacturer's instructions.
On the technique in general: Reporter assays use an easily measured gene product as a stand-in for the process of interest.

Assay [3] relates to Kit225 T cells with STAT-dependent luciferase reporter stimulated with human recombinant IL-23. Put plainly: Kit225 T cell assay, IL-23 stimulated STAT-dependent luciferase reporter. In kind it is cell-based. The method, then:
as §1

Where [4] appears, read: KIT225, 200 U/mL human recombinant IFNα, 5-6 hours, luciferase, read-out: IFNa Kit225 Reporter, LE (IC50).
The mark [5] stands for this setting: KIT225, 20 ng/mL human recombinant IL-23, 5-6 hours, luciferase, read-out: IL-23 Kit225 Reporter, LE (IC50).
Setting [6] is: Homo sapiens, KIT225, read-out: IFNa Kit225 Reporter, LE (IC50, μM).
Where [7] appears, read: Homo sapiens, KIT225, read-out: IL-23 Kit225 Reporter, LE (IC50, μM).

Each structure is given as a SMILES string. Like-named read-outs stand apart in the source and are kept apart here.

T1 sequence (P29597 with tags, fused parts or gaps): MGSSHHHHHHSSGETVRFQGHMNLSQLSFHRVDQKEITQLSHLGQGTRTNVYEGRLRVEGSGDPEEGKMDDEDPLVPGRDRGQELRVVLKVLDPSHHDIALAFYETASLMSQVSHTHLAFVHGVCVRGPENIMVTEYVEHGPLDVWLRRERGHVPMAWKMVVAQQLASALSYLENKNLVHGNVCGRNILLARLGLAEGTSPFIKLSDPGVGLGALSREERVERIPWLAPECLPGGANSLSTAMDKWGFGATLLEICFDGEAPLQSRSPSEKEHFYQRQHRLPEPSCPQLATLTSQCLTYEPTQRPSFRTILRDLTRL

As to `[2H]C([2H])([2H])NC(=O)c1cnc(NC(=O)C2CC2)cc1Nc1cccc(-c2ccn(CC(F)F)n2)c1OC` [Example 36], the EC50 (as a rule, the concentration giving half of the maximal effect) in assay [1] turned out to be 0.0042 µM. For the same compound, the IC50 (in general, the concentration that gives 50% inhibition) was 0.04 µM in assay [2] (setting [4]) and 0.1 µM in assay [3] (setting [5]).
Regarding `[2H]C([2H])([2H])NC(=O)c1cnc(NC(=O)C2CC2)cc1Nc1cccc(-c2ccn(CC)n2)c1OC` [Example 37], the concentration for a half-maximal effect (EC50) in assay [1] turned out to be 0.00352 µM. Further, the figures for the IC50 in assay [2] (setting [4]) and in assay [3] (setting [5]) were 0.07 µM and 0.12 µM, respectively.
As for `[2H]C([2H])([2H])NC(=O)c1cnc(NC(=O)C2CC2)cc1Nc1cccc(-c2ccnn2CC)c1OC` [Example 38], the 50% effective concentration (EC50) in assay [1] came to 0.16 µM. In addition, the IC50 in assay [2] (setting [4]) was 1.66 µM; in assay [3] (setting [5]), 1.52 µM.
As to `[2H]C([2H])([2H])NC(=O)c1cnc(NC(=O)C2CC2)cc1Nc1cccc(-c2ccn(CC(F)(F)F)n2)c1OC` [Example 39], the EC50 in assay [1] amounted to 0.02 µM. In addition, the concentration for half-maximal inhibition (IC50) in assay [2] (setting [6]) turned out to be 0.16 µM; in assay [3] (setting [7]) it was 0.08 µM.
In the case of `[2H]C([2H])([2H])NC(=O)c1cnc(NC(=O)C2CC2)cc1Nc1cccc(-c2ccn(CC(C)(C)O)n2)c1OC` [Example 40], in assay [1], the EC50 is 0.00386 µM. The results for the IC50 in assay [2] (setting [4]) and in assay [3] (setting [5]) were 0.16 µM and 0.17 µM, respectively.
As for `[2H]C([2H])([2H])NC(=O)c1cnc(NC(=O)C2CC2)cc1Nc1cccc(-c2ccn(CCC#N)n2)c1OC` [Example 41], the EC50 in assay [1] came to 0.00274 µM. For the same compound, the IC50 in assay [2] (setting [6]) was 0.09 µM; in assay [3] (setting [7]), 0.19 µM.
As to `CNC(=O)c1cnc(NC(=O)C2CC2)cc1Nc1cccc(-c2cnn(C)c2)c1OC` [Example 42], the 50% effective concentration (EC50) in assay [1] worked out at 0.00719 µM. The IC50 is 0.02 µM in assay [2] (setting [4]) and 0.05 µM in assay [3] (setting [5]).
With `[2H]C([2H])([2H])NC(=O)c1cnc(NC(=O)C2CC2)cc1Nc1cccc(-c2cnn(C)c2)c1OC` [Example 43], the EC50 in assay [1] was 0.00254 µM. The results for the IC50 in assay [2] (setting [4]) and in assay [3] (setting [5]) were 0.02 µM and 0.06 µM, respectively.
Turning to `[2H]C([2H])([2H])NC(=O)c1cnc(NC(=O)C2CC2)cc1Nc1cccc(-c2csc(C)n2)c1OC` [Example 45], in assay [1], the concentration for a half-maximal effect (EC50) stood at 0.00556 µM. The IC50 in assay [2] (setting [4]) and in assay [3] (setting [5]) was 0.01 µM in each case.
